Experimental data: patent US7482328B2, “Antimicrobial polypeptide and utilization thereof” (Toagosei Co., Ltd., priority 2002, dated 2009)
No end group written: not given here.

Key:
Type in all cases: cell-based
[1] = test system: Escherichia coli O157:H7 sakai; conditions: O157:H7, 24 h
Experimental: (§1) More specifically, liquid bouillon media (“NUTRIENT BROTH Dehydraged” manufactured by DIFCO) in a polypeptide concentration of 500, 250, 125, 62.5, 31.3, 15.6, 7.8, 3.9, 1.9, 1.0 and 0.5 μM were prepared, and filled in a 96-well microplate. On the other hand, bacteria suspension (about 2×10^6 cells/mL) that had been stationary cultured at 37° C. for 18 hours with LB Broth, Lennox (manufactured by DIFCO) were inoculated to each well of the 96-well microplate in an equal amount to that of the pharmaceutical solution (the above-described polypeptide-containing bouillon medium). After inoculation, culture was started in an incubator at 37° C., and it was examined based on the turbidity after 24 hours and 48 hours whether or not bacteria are present. The minimum of the polypeptide concentrations in which no increase in the turbidity caused by bacteria at the time of measurement was observed was defined as MIC in this example.
(§2) Next, regarding the polypeptides of the samples 16, 17, 10, 14, and 20, the same antimicrobial test (MIC measurement test) as in Example 2 was performed with respect to various bacteria (see Table 3), and the antimicrobial spectra of these polypeptides were evaluated.

S. aureus = test system: S. aureus
Experimental: (§3) Regarding the antimicrobial polypeptide of the present invention (samples 1 to 33) and the polypeptides of comparative samples 1 to 3, the antimicrobial activities (minimum inhibitory concentration: MIC) with respect to gram-negative bacteria (E. coli) and gram-positive bacteria (S. aureus) were determined by a liquid medium dilution technique using a 96-well microplate.
as §1
(§4) The unit of MIC in Table 2 is μM. […]

E. coli = test system: E. coli
Experimental: as §3, §1, §4

[2] = test system: Proteus vulgaris ATCC13315; conditions: ATCC13315, 24 h
Experimental: as §1, §2

[3] = test system: Pseudomonas aeruginosa IFO3080; conditions: IFO3080, 24 h
Experimental: as §1, §2

[4] = test system: Staphylococcus aureus IFO12732; conditions: IFO12732, 24 h
Experimental: as §1, §2

[5] = test system: Salmonella enteritidis IFO3313; conditions: IFO3313, 24 h
Experimental: as §1, §2

Bacillus cereus IFO15305 = conditions: IFO15305, 24 h
Experimental: as §1, §2

[6] = test system: Bacillus subtilis ATCC6633; conditions: ATCC6633, 24 h
Experimental: as §1, §2

[7] = test system: Micrococcus luteus IFO12708; conditions: IFO12708, 24 h
Experimental: as §1, §2

[8] = test system: Klebsiella pneumoniae ATCC4352; conditions: ATCC4352, 24 h
Experimental: as §1, §2

[9] = test system: Pseudomonas aeruginosa ATCC10145; conditions: ATCC10145, 24 h
Experimental: as §1, §2

[10] = test system: Escherichia coli IFO12713; conditions: IFO12713, 24 h
Experimental: as §1, §2

[11] = test system: Staphylococcus aureus IID1677 (MRSA); conditions: IID1677, 24 h
Experimental: as §1, §2

[12] = test system: Staphylococcus aureus RN450 (*MSSA); conditions: RN450 (*, 24 h)
Experimental: as §1, §2

[13] = test system: Staphylococcus aureus COL (MRSA)
Experimental: as §1, §2

[14] = test system: Salmonella typhimurium IFO1324; conditions: murium IFO1324, 24 h
Experimental: as §1, §2

Bacillus pumilus IFO3813 = test system: Bacillus pumilus IFO3813
Experimental: as §1, §2

Bacillus brevis IFO15304 = test system: Bacillus brevis IFO15304
Experimental: as §1, §2

[15] = test system: Bacillus subtilis IFO3134; conditions: IFO3134, 24 h
Experimental: as §1, §2

Bacillus cereus IFO3001 = conditions: IFO3001, 24 h
Experimental: as §1, §2

[16] = test system: gram-negative bacteria (E. coli) and gram-positive bacteria (S. aureus); assay: antimicrobial test of Example 2, results summed up in words; conditions: summary of Table 2, E. coli and S. aureus
Experimental: as §3, §1

## PKKKRKVPKKKRKV [sample 16, PKKKRKVPKKKRKV]
[1]
  antimicrobial activity after 24 hours: MIC: 17.9 µM

## RIRKKLRRIRKKLR [sample 17, RIRKKLRRIRKKLR]
S. aureus
  antimicrobial activity (MIC) S. aureus after 24h: 3.9 µM
  antimicrobial activity (MIC) S. aureus after 48h: 3.9 µM
E. coli
  antimicrobial activity (MIC) E. coli after 48h: 3.9 µM
[2]
  antimicrobial activity after 24 hours: MIC: 8.1 µM
[3]
  antimicrobial activity after 24 hours: MIC: 8.1 µM
[1]
  antimicrobial activity after 24 hours: MIC: 8.1 µM
[4]
  antimicrobial activity after 24 hours: MIC: 2.0 µM
[5]
  antimicrobial activity after 24 hours: MIC: 4.1 µM
Bacillus cereus IFO15305
  antimicrobial activity after 24 hours: MIC: >260.3 µM
[6]
  antimicrobial activity after 24 hours: MIC: 1.0 µM
[7]
  antimicrobial activity after 24 hours: MIC: 4.1 µM
[8]
  antimicrobial activity after 24 hours: MIC: 8.1 µM
[9]
  antimicrobial activity after 24 hours: MIC: 8.1 µM
[10]
  antimicrobial activity after 24 hours: MIC: 8.1 µM
[11]
  antimicrobial activity after 24 hours: MIC: 8.1 µM
[12]
  antimicrobial activity after 24 hours: MIC: 32.5 µM
[13]
  antimicrobial activity after 24 hours: MIC: 16.3 µM
[14]
  antimicrobial activity after 24 hours: MIC: 4.1 µM
Bacillus pumilus IFO3813
  antimicrobial activity after 24 hours: MIC: 16.3 µM
Bacillus brevis IFO15304
  antimicrobial activity after 24 hours: MIC: >260.3 µM
[15]
  antimicrobial activity after 24 hours: MIC: 0.5 µM
Bacillus cereus IFO3001
  antimicrobial activity after 24 hours: MIC: >260.3 µM

## RKKKRKVKRKKKR [sample 29, RKKKRKVKRKKKR]
S. aureus
  antimicrobial activity (MIC) S. aureus after 24h: 3.9 µM
  antimicrobial activity (MIC) S. aureus after 48h: 7.8 µM
E. coli
  antimicrobial activity (MIC) E. coli after 24h: 1.0 µM
  antimicrobial activity (MIC) E. coli after 48h: 1.0 µM
[16]
  antimicrobial activities (in words): particularly high antimicrobial activities

## RKKKRKVLALKLAGLDI [sample 14, RKKKRKVLALKLAGLDI]
S. aureus
  antimicrobial activity (MIC) S. aureus after 24h: 1.0 µM
  antimicrobial activity (MIC) S. aureus after 48h: 1.9 µM
E. coli
  antimicrobial activity (MIC) E. coli after 24h: 3.9 µM
  antimicrobial activity (MIC) E. coli after 48h: 3.9 µM
[2]
  antimicrobial activity after 24 hours: MIC: 64.1 µM
[3]
  antimicrobial activity after 24 hours: MIC: 16.0 µM
[1]
  antimicrobial activity after 24 hours: MIC: 8.0 µM
[5]
  antimicrobial activity after 24 hours: MIC: 32.0 µM
Bacillus cereus IFO15305
  antimicrobial activity after 24 hours: MIC: 64.1 µM
[6]
  antimicrobial activity after 24 hours: MIC: 1.0 µM
[7]
  antimicrobial activity after 24 hours: MIC: 4.0 µM
[8]
  antimicrobial activity after 24 hours: MIC: 32.0 µM
[9]
  antimicrobial activity after 24 hours: MIC: 32.0 µM
[10]
  antimicrobial activity after 24 hours: MIC: 8.0 µM
[12]
  antimicrobial activity after 24 hours: MIC: 16.0 µM
[13]
  antimicrobial activity after 24 hours: MIC: 16.0 µM
[14]
  antimicrobial activity after 24 hours: MIC: >256.3 µM
Bacillus pumilus IFO3813
  antimicrobial activity after 24 hours: MIC: 4.0 µM
Bacillus brevis IFO15304
  antimicrobial activity after 24 hours: MIC: 128.2 µM
[15]
  antimicrobial activity after 24 hours: MIC: 1.0 µM
Bacillus cereus IFO3001
  antimicrobial activity after 24 hours: MIC: 32.0 µM
[16]
  antimicrobial activities (in words): high antimicrobial activities

## RKKKRKVRKKKRKV [sample 20, RKKKRKVRKKKRKV]
S. aureus
  antimicrobial activity (MIC) S. aureus after 24h: 1.9 µM
  antimicrobial activity (MIC) S. aureus after 48h: 1.9 µM
E. coli
  antimicrobial activity (MIC) E. coli after 24h: 1.9 µM
  antimicrobial activity (MIC) E. coli after 48h: 1.9 µM
[2]
  antimicrobial activity after 24 hours: MIC: 8.4 µM
[3]
  antimicrobial activity after 24 hours: MIC: 4.2 µM
[1]
  antimicrobial activity after 24 hours: MIC: 8.4 µM
[4]
  antimicrobial activity after 24 hours: MIC: 4.2 µM
[5]
  antimicrobial activity after 24 hours: MIC: 4.2 µM
Bacillus cereus IFO15305
  antimicrobial activity after 24 hours: MIC: 133.9 µM
[6]
  antimicrobial activity after 24 hours: MIC: 2.1 µM
[7]
  antimicrobial activity after 24 hours: MIC: 8.4 µM
[8]
  antimicrobial activity after 24 hours: MIC: 4.2 µM
[9]
  antimicrobial activity after 24 hours: MIC: 4.2 µM
[10]
  antimicrobial activity after 24 hours: MIC: 8.4 µM
[11]
  antimicrobial activity after 24 hours: MIC: 8.4 µM
[12]
  antimicrobial activity after 24 hours: MIC: 33.5 µM
[13]
  antimicrobial activity after 24 hours: MIC: 33.5 µM
[14]
  antimicrobial activity after 24 hours: MIC: 8.4 µM
Bacillus pumilus IFO3813
  antimicrobial activity after 24 hours: MIC: 16.7 µM
Bacillus brevis IFO15304
  antimicrobial activity after 24 hours: MIC: 133.9 µM
[15]
  antimicrobial activity after 24 hours: MIC: 4.2 µM
Bacillus cereus IFO3001
  antimicrobial activity after 24 hours: MIC: >267.9 µM

## RKKKRKVVKRKKKR [sample 28, RKKKRKVVKRKKKR]
S. aureus
  antimicrobial activity (MIC) S. aureus after 24h: 3.9 µM
  antimicrobial activity (MIC) S. aureus after 48h: 7.8 µM
E. coli
  antimicrobial activity (MIC) E. coli after 24h: 1.0 µM
  antimicrobial activity (MIC) E. coli after 48h: 1.0 µM
[16]
  antimicrobial activities (in words): particularly high antimicrobial activities
